Assay results reported in patent US4156777A, “Process for producing glucopyranose-nitrosourea compounds and novel compounds included therein” (Tokyo Tanabe Company, Limited, priority 1977, dated 1979).
Converted amounts (≈) assume the structure as drawn.

Key:
[1] = Solubility in water at 25° C.; format: physicochemical; details: amount soluble in 1 ml water at 25° C.
leukemia L-1210 = experiment: Antitumor activity against leukemia L-1210 implanted in BDF1 mice (ILS, 60 days survivors); format: in vivo
Excerpt: Test compounds were given to BDF1 mice 24 hrs after implantation of 10^6 cells of leukemia L-1210 in each animal, through single intraperitoneal administration, intraperitoneal administration for 5 successive days, single oral administration or oral administration for 5 successive days, whereupon the increase in life span (referred to as "ILS") and number of 60 days survivors of test animals were estimated, said test of antitumor activity being that according to the method of the National Cancer Center, Tokyo [A. Hoshi et al: Farmashia, 9 (1973), 464]. In the tests, the compounds were dissolved in physiological saline solution just before administration.
^a i.p.: intraperitoneal administration p.o: oral administration
D1 : single administration D1~5 : administration for 5
^b percentage calculated from mean survival time over control
^c survivors/six animals

[2] = Diabetogenic activity (blood glucose concentration after intravenous administration); format: in vivo, male Wister rats
Method: 40-96 mg/kg of the test compounds were administered intravenously to starved male Wister rats weighing 240-260 g each, and the blood glucose concentrations of the test animals were estimated by the glucose exidase method [L. L. Saloman et al: Anal. Chem., 31 (1959), 453], in which test the compounds were dissolved in physiological saline solution just before administration. […]

Acute toxicity (LD50) = format: in vivo, male Wister rats; details: rat, in vivo, after 1 week
Method: Test compounds were dissolved in physiological saline solution just before their dosage and administered to male Wister rats, intraperitoneally, intravenously and orally. After 1 week, the LD50 of each compound was calculated from the mortality of the test animals by the Lichfield-Wilcoxon Method.
i.v.: intravenous administration

[3] = Absorption and excretion of 14C-labelled compounds; format: in vivo, rats; details: rats, 14C-labelled
Method: The carbon atom at the 2-position of the chloroethyl group (i.e. ClCH2 CH2 -) of 6DCNU and 6MCαG was labelled with radioactive ^14 C, and the absorption and excretion of these compounds were tested using rats.

[4] = tested on: Bacillus subtilis ATCC 6633; experiment: Antibacterial activity, broth-dilution method; format: cell-based; details: ATCC6633
Excerpt: (§1) Using 6DCNU and 6MCαG, minimum inhibiting concentrations (referred to as "MIC") for various kinds of bacteria were estimated by means of the broth-dilution method.

[5] = tested on: Escherichia coli NIHJ JC-2; experiment: Antibacterial activity, broth-dilution method; format: cell-based; details: NIHJJC2
Excerpt: as §1

[6] = tested on: Klebsiella pneumoniae IFM 3008; experiment: Antibacterial activity, broth-dilution method; format: cell-based; details: IFM3008
Excerpt: as §1

[7] = tested on: Mycobacterium smegmatis ATCC 607; experiment: Antibacterial activity, broth-dilution method; format: cell-based; details: Mycolicibacterium smegmatis, ATCC607
Excerpt: as §1

[8] = tested on: Proteus vulgaris AHU 1469; experiment: Antibacterial activity, broth-dilution method; format: cell-based; details: AHU1469
Excerpt: as §1

[9] = tested on: Pseudomonas aeruginosa IFO 3080; experiment: Antibacterial activity, broth-dilution method; format: cell-based; details: IFO3080
Excerpt: as §1

Sarcina lutea ATCC 9341 = experiment: Antibacterial activity, broth-dilution method; format: cell-based; details: Micrococcus luteus, ATCC9341
Excerpt: as §1

Shigella sonnei = experiment: Antibacterial activity, broth-dilution method; format: cell-based
Excerpt: as §1

[10] = tested on: Staphylococcus aureus FDA 209P JC-1; experiment: Antibacterial activity, broth-dilution method; format: cell-based; details: FDA209P
Excerpt: as §1

[11] = tested on: Streptococcus faecalis AHU 1085; experiment: Antibacterial activity, broth-dilution method; format: cell-based; details: Enterococcus faecalis, AHU1085
Excerpt: as §1

CO[C@H]1O[C@H](CNC(=O)N(CCCl)N=O)[C@@H](O)[C@H](O)[C@H]1O [Example 6MCαG, 1-(2-chloroethyl)-3-(methyl α-D-glucopyranos-6-yl)-1-nitrosourea]
solubility [1]: 900 mg/mL (≈ 2750 mM) | ILS (leukemia L-1210; 2.3 mg/kg/day, i.p. D1~5): > 207% | Survivors (60 days) (leukemia L-1210; 2.3 mg/kg/day, i.p. D1~5): 1/6 | ILS (leukemia L-1210; 3.2 mg/kg/day, i.p. D1~5): > 521% | Survivors (60 days) (leukemia L-1210; 3.2 mg/kg/day, i.p. D1~5): 4/6 | ILS (leukemia L-1210; 3.2 mg/kg/day, p.o. D1~5): 38% | ILS (leukemia L-1210; 4.5 mg/kg/day, i.p. D1~5): > 607% | Survivors (60 days) (leukemia L-1210; 4.5 mg/kg/day, i.p. D1~5): 5/6 | ILS (leukemia L-1210; 6.3 mg/kg/day, i.p. D1): > 241% | Survivors (60 days) (leukemia L-1210; 6.3 mg/kg/day, i.p. D1): 3/6 | ILS (leukemia L-1210; 6.3 mg/kg/day, i.p. D1~5): > 722% | Survivors (60 days) (leukemia L-1210; 6.3 mg/kg/day, i.p. D1~5): 6/6 | ILS (leukemia L-1210; 6.3 mg/kg/day, p.o. D1~5): > 397% | Survivors (60 days) (leukemia L-1210; 6.3 mg/kg/day, p.o. D1~5): 3/6 | ILS (leukemia L-1210; 9.0 mg/kg/day, i.p. D1): > 604% | Survivors (60 days) (leukemia L-1210; 9.0 mg/kg/day, i.p. D1): 5/6 | ILS (leukemia L-1210; 9.0 mg/kg/day, i.p. D1~5): > 700% | Survivors (60 days) (leukemia L-1210; 9.0 mg/kg/day, i.p. D1~5): 6/6 | ILS (leukemia L-1210; 9.0 mg/kg/day, p.o. D1~5): > 417% | Survivors (60 days) (leukemia L-1210; 9.0 mg/kg/day, p.o. D1~5): 3/6 | ILS (leukemia L-1210; 12.5 mg/kg/day, i.p. D1): > 619% | Survivors (60 days) (leukemia L-1210; 12.5 mg/kg/day, i.p. D1): 6/6 | ILS (leukemia L-1210; 12.5 mg/kg/day, i.p. D1~5): > 722% | Survivors (60 days) (leukemia L-1210; 12.5 mg/kg/day, i.p. D1~5): 6/6 | ILS (leukemia L-1210; 12.5 mg/kg/day, p.o. D1~5): > 700% | Survivors (60 days) (leukemia L-1210; 12.5 mg/kg/day, p.o. D1~5): 6/6 | ILS (leukemia L-1210; 18.0 mg/kg/day, i.p. D1): > 632% | Survivors (60 days) (leukemia L-1210; 18.0 mg/kg/day, i.p. D1): 6/6 | ILS (leukemia L-1210; 18.0 mg/kg/day, i.p. D1~5): > 493% | Survivors (60 days) (leukemia L-1210; 18.0 mg/kg/day, i.p. D1~5): 4/6 | ILS (leukemia L-1210; 18.0 mg/kg/day, p.o. D1~5): > 679% | Survivors (60 days) (leukemia L-1210; 18.0 mg/kg/day, p.o. D1~5): 6/6 | ILS (leukemia L-1210; 25.0 mg/kg/day, i.p. D1): > 625% | Survivors (60 days) (leukemia L-1210; 25.0 mg/kg/day, i.p. D1): 6/6 | ILS (leukemia L-1210; 25.0 mg/kg/day, i.p. D1~5): > 393% | Survivors (60 days) (leukemia L-1210; 25.0 mg/kg/day, i.p. D1~5): 3/6 | ILS (leukemia L-1210; 25.0 mg/kg/day, p.o. D1~5): 233% | ILS (leukemia L-1210; 35.0 mg/kg/day, i.p. D1): > 632% | Survivors (60 days) (leukemia L-1210; 35.0 mg/kg/day, i.p. D1): 6/6 | ILS (leukemia L-1210; 35.0 mg/kg/day, i.p. D1~5): > 157% | Survivors (60 days) (leukemia L-1210; 35.0 mg/kg/day, i.p. D1~5): 1/6 | ILS (leukemia L-1210; 50.0 mg/kg/day, i.p. D1): > 388% | Survivors (60 days) (leukemia L-1210; 50.0 mg/kg/day, i.p. D1): 3/6 | Blood Glucose Concentration ([2]; 40 mg/kg i.v., 0 hr after treatment): 72.0 mg/dL | Blood Glucose Concentration ([2]; 40 mg/kg i.v., 2 hr after treatment): 75.9 mg/dL | Blood Glucose Concentration ([2]; 40 mg/kg i.v., 4 hr after treatment): 79.3 mg/dL | Blood Glucose Concentration ([2]; 40 mg/kg i.v., 7 hr after treatment): 71.7 mg/dL | Blood Glucose Concentration ([2]; 40 mg/kg i.v., 10 hr after treatment): 79.4 mg/dL | Blood Glucose Concentration ([2]; 40 mg/kg i.v., 24 hr after treatment): 73.1 mg/dL | Blood Glucose Concentration ([2]; 40 mg/kg i.v., 48 hr after treatment): 75.3 mg/dL | Blood Glucose Concentration ([2]; 60 mg/kg i.v., 0 hr after treatment): 71.8 mg/dL | Blood Glucose Concentration ([2]; 60 mg/kg i.v., 2 hr after treatment): 72.5 mg/dL | Blood Glucose Concentration ([2]; 60 mg/kg i.v., 4 hr after treatment): 69.8 mg/dL | Blood Glucose Concentration ([2]; 60 mg/kg i.v., 7 hr after treatment): 68.7 mg/dL | Blood Glucose Concentration ([2]; 60 mg/kg i.v., 10 hr after treatment): 67.7 mg/dL | Blood Glucose Concentration ([2]; 60 mg/kg i.v., 24 hr after treatment): 68.4 mg/dL | Blood Glucose Concentration ([2]; 60 mg/kg i.v., 48 hr after treatment): 70.8 mg/dL | Blood Glucose Concentration ([2]; 80 mg/kg i.v., 0 hr after treatment): 73.7 mg/dL | Blood Glucose Concentration ([2]; 80 mg/kg i.v., 2 hr after treatment): 82.0 mg/dL | Blood Glucose Concentration ([2]; 80 mg/kg i.v., 4 hr after treatment): 78.3 mg/dL | Blood Glucose Concentration ([2]; 80 mg/kg i.v., 7 hr after treatment): 77.8 mg/dL | Blood Glucose Concentration ([2]; 80 mg/kg i.v., 10 hr after treatment): 73.6 mg/dL | Blood Glucose Concentration ([2]; 80 mg/kg i.v., 24 hr after treatment): 76.3 mg/dL | Blood Glucose Concentration ([2]; 80 mg/kg i.v., 48 hr after treatment): 83.1 mg/dL | blood glucose concentrations versus control, in words ([2]; i.v., rats): substantially the same blood glucose concentrations as that in the control | LD50 at 168 h (Acute toxicity (LD50); ip): 42 mg/kg | LD50 at 168 h (Acute toxicity (LD50); iv): 42 mg/kg | LD50 at 168 h (Acute toxicity (LD50); po): 50 mg/kg | absorption, in words [3]: absorbed well | excretion rate, intravenous versus oral administration, in words [3]: almost the same excretion rates | main route of excretion, in words [3]: excreted mainly in the urine | MIC [4]: > 200 µg/mL | MIC [5]: > 200 µg/mL | MIC [6]: > 200 µg/mL | MIC [7]: > 200 µg/mL | MIC [8]: > 200 µg/mL | MIC [9]: > 200 µg/mL | MIC (Sarcina lutea ATCC 9341): > 200 µg/mL | MIC (Shigella sonnei): > 200 µg/mL | MIC [10]: > 200 µg/mL | MIC [11]: > 200 µg/mL
